Data reported in PMC9458062, “^131I-C19 Iodide Radioisotope and Synthetic I-C19 Compounds as K-Ras4B–PDE6δ Inhibitors: A Novel Approach against Colorectal Cancer—Biological Characterization, Biokinetics and Dosimetry” (Molecules, 2022).

Experiments:
micronuclei = conditions: mice, 30 mg/kg; cited from earlier work
[1] = system: bone marrow polychromatic erythrocytes; assay: Genotoxicity, bone marrow micronucleus assay; conditions: 24 h, per 2000 PCEs (vehicle 7 ± 2)
Description: The test compounds were intraperitoneally administered once, as a solution, at a concentration of 15 mg/kg of 5-fluorouracil (5-Fu) and 30 mg/kg of C19 or I-C19. Bone marrow cells were obtained 24 h after treatment and stained with Giemsa-Wright (Diff-Quick; Harleco; Gibbstown, NJ, USA). Two-thousand polychromatic erythrocytes were counted per animal using an optical microscope at 100× magnification to determine the number of micronucleated polychromatic erythrocytes.

colon adenocarcinoma = assay: AOM/DSS colorectal cancer mouse model; type: in vivo, C57BL/6 male mice; conditions: AOM/DSS mice
Description: Aberrant glands formed these lesions, and the cells that formed them presented atypical nuclei with evident nucleoli and loss of mucus production. The percentage of mice colorectal tissue affected with these lesions was considered as the percentage of colon adenocarcinoma in mice.
Six-week-old C57BL/6 male mice, with a weight of approximately 20 g, were intraperitoneally injected with a single dose of azoxymethane (AOM) (10 mg/kg). […] For the control group, the same procedure was performed with normal intraperitoneal saline and pure drinking water instead of the AOM/DSS treatment.
Paraffin sections of colon tumor samples were deparaffinized in xylene and rehydrated in a series of graded alcohols. Antigens were retrieved in 0.01 M sodium citrate buffer and 0.1M EDTA-Tris buffer (Novocastra™ Epitope Retrieval Solutions, cat. RE7113; Leica Biosystems). Samples were incubated in 0.9% H2O2 for 5 min, followed by 1 h of blocking in 1% BSA in PBS. […] Then, the samples were developed with the Betazoid DAB Chromogen Kit (Cat. BDB2004H; BIOCARE Medical), counter-stained with hematoxylin and mounted with synthetic resin solution (Entallan.107960; Merck).

CCD-18Co = system: CCD-18Co; design: method as in PMID 30382908; conditions: CCD-18Co healthy cell line; cited from earlier work
[2] = system: colorectal cancer cell lines; assay: Cell uptake, initial; type: cell-based, human; conditions: before the 3 h increase
Description: (§1) The HCT116, LoVo and SW620 cells were seeded in 48-well tissue culture plates at a density of 10^5 cells/well. After 24 h, the cells were exposed to 1.44 Bq/cell of ^131I-C19 (200 μL) at 37 °C for 1, 3 and 5 h. After treatment, two washes (1 mL of ice-cold PBS) were performed. For the calculation of the cell uptake, the cells in each well were treated (at room temperature for 5 min) with 500 μL of glycine buffer (50 mM, pH 2.8). Then, this fraction was removed, and the radioactivity was measured in a NaI (Tl) detector (BCL, San Rafael CA, USA). To evaluate the ^131I-C19 internalization, the cells were incubated with 1 mL of NaOH 0.3 M (at room temperature for 10 min). Once more, the radioactivity was measured in a NaI (Tl) detector (BCL, San Rafael CA, USA). A 100% standard solution (200 μL) of ^131I-C19 was also measured (n = 5). The uptake (%) (plasmatic membrane) and internalization (%) (cytoplasm) were used to obtain the radiation absorbed dose.

[3] = Biodistribution and biokinetic models; type: in vivo, Nu/Nu mice with LoVo xenograft tumors
Description: ^131I-C19 was intraperitoneally injected (200 µL, 5 MBq (135 µCi/mice)) into nu/nu mice. The mice (n = 3) were euthanized at 0.5, 1, 3, 5, 24, 48, 92 and 144 h post-injection. Whole tumor, lung, liver, pancreas, spleen, kidney, large intestine (colon) and blood were rinsed and placed into pre-weighed plastic test tubes. The activity was determined in a NaI(Tl) detector (Canberra) along with three 0.5 mL aliquots of the diluted standard, representing 100% of the injected activity and used for radioactive decay correction. Mean activity values in each organ were correlated with those of the standard (representing the initial injected activity) to obtain the percentage of injected dose (% ID) at different times. The % ID values of each organ or tumor were input into the Olinda/EXM 2.0 software and adjusted to exponential functions (first-order kinetics) to obtain biokinetic models corrected by radioactive decay ( qh(t) ) (Equation (2)), which corresponded to the I-C19 compound. Likewise, the Ah(t) functions, which corresponded to the ^131I-C19 biokinetic models, were obtained considering λeff as =λB+λR , where the biological constant is represented by λB and the ^131I − radioactive decay constant is λR (Equation (3)). (2) qh(t)=Ah(t)×e^λR = Be^(−λBb)t+Ce^(−λBc)t+De^(−λBd)t (3) Ah(t)=Be^−(λBb+λR)t+Ce^−(λBc+λR)t+De^−(λBd+λR)t

γ-H2AX foci in SW620 = assay: DNA double-stranded breaks, γ-H2AX foci assay; type: cell-based, human; conditions: SW620, 6.8 µM, 3 h
Description: (§2) For the evaluation of DNA double-stranded breaks (DSBs), the phosphorylation of the Ser-139 gamma histone variant H2AX (γH2AX) was used as a biomarker. Cells, diluted to a suitable concentration, were grown on a glass slide after exposure to I-C19 or ^131I-labeled C19 (1.8, 6.8 and 8.8 µM for the cell lines LoVo, SW620 and HCT116, respectively) for 3 h. The anti-phospho-histone H2A.X (ser139) (1:200; CST, Boston, MA, USA) antibody was used as the primary antibody. The Alexa-488-conjugated anti-rabbit IgG was used for the visualization of γH2AX. […] To quantify the foci, clear and easily distinguishable dots were counted. At least 30 cells were imaged per slide, and the average number of foci per cell was calculated.

γ-H2AX foci in HCT116 = assay: DNA double-stranded breaks, γ-H2AX foci assay; type: cell-based, human
Description: as §2

γ-H2AX foci in LoVo = assay: DNA double-stranded breaks, γ-H2AX foci assay; type: cell-based, human; conditions: 1.8 µM, 3 h
Description: as §2

LoVo [4] = assay: Cell uptake, internalization and radiation absorbed dose to the nucleus; type: cell-based, human; conditions: for total uptake in the cell membrane (of the total radioactivity): 1.44 Bq/cell
Description: as §1
(§3) For estimation of the radiation absorbed doses to the HCT116, LoVo and SW620 cells’ nuclei, Equation (1) was used:(1) DN←source=(NCS×DFN←CS)+(NCy×DFN←Cy) where DN←source denotes the mean absorbed dose to the nucleus from source regions (i.e., cell surface—CS; cytoplasm—Cy); NCS and NCy are the total nuclear transformations occurring in the membrane and cytoplasm, respectively, calculated from the mathematical integration (from t = 0 to t = ∞) of the activity estimated in the internalization and cell uptake experiments; DFN←CS and DFN←Cy represent the dose factors specific for [^131I] from the cell surface (plasmatic membrane) and cytoplasm regions to the nucleus configuration. The dose factor geometries were obtained from S values (HCT116 cell radius = 10 μm, nucleus radius = 5 μm; LoVo and SW620 cell radius = 10 μm, nucleus radius = 6 μm).

SW620 [5] = assay: as above; type: cell-based, human; conditions: for total uptake in the cell membrane (of the total radioactivity): 1.44 Bq/cell
Description: as §1, §3

HCT116 [6] = assay: as above; type: cell-based, human; conditions: for total uptake in the cell membrane (of the total radioactivity): 1.44 Bq/cell
Description: as §1, §3

LoVo [7] = assay: XTT cell viability; type: cell-based, human; conditions: 1.8 µM, 1.44 Bq/cell, 72 h
Description: (§4) The human CRC cell lines, LoVo (ATCC® CCL-229™), SW620 (ATCC® CCL-227™) and HCT116 (ATCC® CCL-247™), were acquired from ATCC and cultured in F12K medium (Kaighn’s Modification of Ham’s F-12 Medium), DMEM-F12 medium and RPMI-1640 medium, (ATCC, Manassas, VA, USA), respectively. The human colorectal fibroblast CCD-18Co line was grown in an EMEM medium (ATCC, Manassas, VA, USA). The media were added with 10% fetal bovine serum and a 1% penicillin/streptomycin solution. Cells were incubated at 37 °C in a humidified atmosphere of 5% CO2.
(§5) The CCD-18Co, SW620, LoVo and HCT116 cell lines were plated in 96-well plates at a density of 10^4 cells/well for 24 h to allow for adherence. Then, the cells were treated with the I-C19 compound for 72 h. Cell viability was evaluated by the XTT (2,3-bis[2-methoxy-4-nitro-5-sulfophenyl]-2H-tetrazolium-5-carboxyanilide) assay kit (Roche, Germany), based on to the manufacturer’s instructions. The required I-C19 concentration, which produced fifty percent cell death at 72 h, was calculated by fitting a model with Prism software (GraphPad Software, San Diego, CA, USA).
(§6) For the assessment of dual therapy, beta radiation emission from ^131I-labeled C19 was also evaluated. The mitochondrial dehydrogenase activity in living HCT116, LoVo and SW620 cells was considered to measure the contribution of ^131I beta radiation to cell death, and the cell viability analysis was carried out after exposure to concentrations ten times lower than the IC50 obtained for each cancer cell line (8.8, 1.8 and 6.8 µM, respectively). Cell viability was evaluated by the XTT (2,3-bis[2-methoxy-4-nitro-5-sulfophenyl]-2H-tetrazolium-5-carboxyanilide) assay kit (Roche, Germany), based on to the manufacturer’s instructions. Briefly, colorectal cancer cell lines at a density of 10^4 cells/well were seeded in 96-well microtiter plates. The viability after treatment was measured 72 h (incubation in 5% CO2, 85% humidity and 37 °C). The absorbance in each well was recorded in a microplate reader (Epoch; BioTek Instruments; Winooski, VT, USA) at 450 nm. […]

SW620 [8] = assay: XTT cell viability; type: cell-based, human; conditions: SW620, 6.8 µM, 1.44 Bq/cell, 72 h
Description: as §4, §5, §6

HCT116 [9] = assay: XTT cell viability; type: cell-based, human; conditions: HCT116, 8.8 µM, 1.44 Bq/cell, 72 h
Description: as §4, §5, §6

[10] = system: CMT93 (mice colorectal cancer) allograft tumors; design: method as in PMID 19569179; conditions: 30 min post-injection; cited from earlier work

For `O=P1(N(CCCl)CCCl)NCCCO1` (stereo not drawn) [CP, Cyclophosphamide], the induction of micronuclei (micronuclei) is listed as “strong”.
For `COc1ccc(CN[C@@H](C)C(=O)Nc2cc(Cl)ccc2Cl)cc1OC` [C19, (2S)-N-(2,5-dichlorophenyl)-2-[(3,4-dimethoxyphenyl)methylamine]propanamide], the “frequency of micronucleated polychromatic erythrocytes (MNPCEs)” value ([1]; 30 mg/kg single intraperitoneal injection, not significant) was 12 ± 1, the “percentage of colon adenocarcinoma” value (colon adenocarcinoma; 30 mg/kg intraperitoneally every day for 12 days (vehicle 7–8%)) was 5–6% and the “CEA marker, IHC” value (colon adenocarcinoma; 30 mg/kg, 12 days (vehicle 65%)) was 12.5 % of neoplastic tissue. For the same compound, the IC50 (CCD-18Co) was 60.8 µM.
In the case of `COc1ccc(CNC(C)C(=O)Nc2cc([131I])ccc2[131I])cc1OC` (stereo not drawn) [^131I-C19], the initial uptake [2] is reported as 3.28–3.6%, the “activity concentration in the tumor tissue” value ([3]; LoVo tumor, after 1 h) is reported as 4.4 % ID/g and the route of excretion ([3]; biodistribution, 5 MBq intraperitoneal) is reported as “renal and hepatobiliary excretion”. For the same compound, the “remaining fraction of activity cleared slowly from the blood” value ([3]; intraperitoneal, fitted biexponential model) was 10.2%, the “γ-H2AX foci increase, ^131I-C19 vs. I-C19 at the same concentration” value (γ-H2AX foci in SW620) was 2.3 times and the “γ-H2AX foci, ^131I-C19 vs. I-C19 at the same concentration” value (γ-H2AX foci in HCT116; HCT116, 8.8 µM, 3 h) was “almost three times more γ-H2AX foci”. The “level of DSBs relative to the control” value (γ-H2AX foci in HCT116; HCT116, exposure to ^131I beta radiation) was “six times higher than the control”, the “γ-H2AX foci increase, ^131I-C19 vs. I-C19 at the same concentration” value (γ-H2AX foci in LoVo) was 2.1 times and the “internalized activity into the cytoplasm” value (LoVo [4]; 3 h) was 2.90 ± 0.82%. The “total uptake in the cell membrane (of the total radioactivity)” value (from here on “total uptake in the cell membrane”) (LoVo [4]; 3 h) was 40.2 ± 6.4%, the “internalized activity into the cytoplasm” value (LoVo [4]; 5 h) was 0.30 ± 0.04% and the “total uptake in the cell membrane” value (LoVo [4]; 5 h) was 1.80 ± 0.18%. For the same compound, the “internalized activity into the cytoplasm” value (SW620 [5]; SW620, 3 h) was 2.66 ± 0.30%, the “total uptake in the cell membrane” value (SW620 [5]; SW620, 3 h) was 45.6 ± 6.7% and the “internalized activity into the cytoplasm” value (SW620 [5]; SW620, 5 h) was 1.44 ± 0.14%. For the same compound, the “total uptake in the cell membrane” value (SW620 [5]; SW620, 5 h) was 25.62 ± 4.71%, the “internalized activity into the cytoplasm” value (HCT116 [6]; HCT116, 3 h) was 2.45 ± 0.21% and the “total uptake in the cell membrane” value (HCT116 [6]; HCT116, 3 h) was 43.6 ± 4.7%. For the same compound, the “internalized activity into the cytoplasm” value (HCT116 [6]; HCT116, 5 h) was 1.63 ± 0.05%, the “total uptake in the cell membrane” value (HCT116 [6]; HCT116, 5 h) was 1.63 ± 0.34% and the “cell viability compared to unlabeled I-C19 at the same concentration” value (LoVo [7]) was “viability significantly decreased”. The “cell viability compared to unlabeled I-C19 at the same concentration” value (SW620 [8]) was “viability significantly decreased” and the “cell viability compared to unlabeled I-C19 at the same concentration” value (HCT116 [9]) was “viability significantly decreased”.
For `O=c1[nH]cc(F)c(=O)[nH]1` [5-Fu, 5-fluorouracil, reference compound], the “frequency of micronucleated polychromatic erythrocytes (MNPCEs)” value ([1]; 15 mg/kg single intraperitoneal injection) was 27 ± 4.
For `[125I-].[Na+]` [Na[^125I]], the “activity in tumor tissue” value [10] is listed as 9.1 % ID/g.
